Assay results taken from patent US7858609B2, “Solid ganaxolone formulations and methods for the making and use thereof” (Marinus Pharmaceuticals, priority 2005, dated 2010).

Assay: Solubility of ganaxolone using water soluble beta cyclodextrins
Type: physicochemical
Conditions: using water soluble beta cyclodextrins (beta-sulfobutyl-cyclodextrin, 2-hydroxypropylbetacyclodextrin)
Source text: Ganaxolone formulations suitable for intramuscular, subcutaneous, or intravenous injection may comprise physiologically acceptable sterile aqueous or non-aqueous solutions, dispersions, suspensions or emulsions, and sterile powders for reconstitution into sterile injectable solutions or dispersions. Examples of suitable aqueous and non-aqueous carriers, diluents, solvents, or vehicles including water, ethanol, polyols (propylene glycol, polyethylene-glycol, glycerol, cremophor and the like), suitable mixtures thereof, vegetable oils (such as olive oil) and injectable organic esters such as ethyl oleate. Additionally, Ganaxolone can be dissolved at concentrations of >1 mg/ml using water soluble beta cyclodextrins (e.g. beta-sulfobutyl-cyclodextrin and 2-hydroxypropylbetacyclodextrin. Proper fluidity can be maintained, for example, by the use of a coating such as lecithin, by the maintenance of the required particle size in the case of dispersions, and by the use of surfactants. Ganaxolone formulations suitable for subcutaneous injection may also contain additives such as preserving, wetting, emulsifying, and dispensing agents. Prevention of the growth of microorganisms can be ensured by various antibacterial and antifungal agents, such as parabens, benzoic acid, benzyl alcohol, chlorobutanol, phenol, sorbic acid, and the like. […]

CC(=O)[C@H]1CC[C@H]2[C@@H]3CC[C@H]4C[C@](C)(O)CC[C@]4(C)[C@H]3CC[C@]12C [Ganaxolone, 3α-hydroxy-3β-methyl-5α-pregnan-20-one]
dissolved concentration: > 1 mg/mL
